Measurements as given in patent US12668646B2, “Cross-linking compounds and methods of use thereof” (North Carolina State University, priority 2019, dated 2026).
“And” between values parts separate entries of the source, which are not always exact repeats. Identical values can stand only once.

What was measured:
Assay type in all cases: biochemical
[1] = target: T1, β-glucosidase from Agrobacterium sp. (Agrobacterium sp., UniProt P12614); test: Oligomerization of compound V with β-glucosidase
T1 construct: purchased Megazyme
T1 sequence (P12614 1-459): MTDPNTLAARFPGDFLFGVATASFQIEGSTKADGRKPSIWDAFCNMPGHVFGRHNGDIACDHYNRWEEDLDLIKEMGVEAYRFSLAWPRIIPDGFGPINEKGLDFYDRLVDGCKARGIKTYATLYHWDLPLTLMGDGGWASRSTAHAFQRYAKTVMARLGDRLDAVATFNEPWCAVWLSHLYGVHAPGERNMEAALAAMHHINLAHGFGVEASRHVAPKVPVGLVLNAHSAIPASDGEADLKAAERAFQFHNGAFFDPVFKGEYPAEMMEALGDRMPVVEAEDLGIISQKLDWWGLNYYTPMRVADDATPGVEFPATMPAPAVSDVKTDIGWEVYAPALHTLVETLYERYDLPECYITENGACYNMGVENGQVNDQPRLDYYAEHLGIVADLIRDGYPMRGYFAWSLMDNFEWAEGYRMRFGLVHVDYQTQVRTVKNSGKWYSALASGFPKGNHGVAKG
Protocol: The oligomerization of compound V was examined by treatment with the enzyme […]-glucosidase. The reaction mixture contained 50 μM of compound V and 200 nM of β-glucosidase (250-fold ratio). The reaction mixture was only faintly blue but upon centrifugation after 5 h of incubation, a blue precipitate was obtained. According to the colors of samples (FIG. 13, panel A), the yield of precipitate is low by comparison with our previously reported enzyme-substrate pairs (see Example 1). Multiple additions of enzyme (4×0.20 μM of enzyme stock, every 2 h) and longer incubation times (10 h or 24 h) were also tested but no increase in solution intensity or precipitate was observed. For the samples after 300 min of incubation, the precipitates suspended in H2O were screened by optical microscopy (FIG. 13, panel B) and DLS (FIG. 13, panel C). The size of aggregates is between 100 and 1000 nm as measured by DLS, which is consistent with the images obtained by optical microscopy (˜1 μm).
Quantitation of the indigogenic compounds in the precipitate and supernatant was carried out by absorption spectroscopy and multicomponent analysis (MCA) (M. Taniguchi, et al., Photochem. Photobiol., 2018, 94, 277-289) (FIG. 13, panels D and E). MCA analysis is essential due to the overlaid spectra of indigo and coumarin at 362 nm, the peak wavelength for the coumarin. Spectral deconvolution relied on knowledge of the molar absorption coefficient at 362 nm of coumarin (εcou362=2.0×10^4 M^−1 cm^−1 measured in DMF) and indigo model compound F19 (see Example 1 where F-19 is compound 43) shown in Chart 2 (εind362=0.81×10^4 M^−1 cm^−1 measured in DMSO/H2O, v/v=2/1); and the molar absorption coefficient of F19 at 630 nm (εind630=2.6×10^4 M^[…] cm^−1, measured in DMSO/H2O, v/v=2/1). The residual upon MCA was smaller than any of the components, as required for accurate analysis (Y. Mang, et al., Phytochem. Anal., 2018, 29, 205-216). In this manner, the precipitate is composed of 51.6 nmol of coumarin and 2.8 nmol of indigoid dye; the supernatant is composed of 11.1 nmol of coumarin and 0.3 nmol of indigoid dye.
Materials. DMF (HPLC grade) was purchased from Alfa Aesar. H2O (molecular biology grade) for buffer preparation was purchased from Millipore Sigma. Compound V (5.6 mg) was dissolved in DMF (26 μL) to prepare 100 mM stock solution. Pi buffer was prepared freshly at 10 mM, pH 7. The enzyme β-glucosidase from Agrobacterium sp. was purchased from MegaZyme and was dissolved in Pi buffer at 10 μM to prepare the stock solution.
To screen the oligomerization procedure of compound V, samples of Pi buffer (1859 μL), DMF (100 μL), β-glucosidase stock (40 μL) and compound V stock (1 μL) were mixed in a 2-mL Eppendorf tube. The resulting mixed sample (2.0 mL) contains 50 μM of compound V as the substrate and 0.20 μM of β-glucosidase as the enzyme. Three identical samples were prepared for different assays. For a control sample, 40 μL of Pi buffer was added as a replacement for the β-glucosidase stock solution. The tubes were incubated at 37° C. for 5 h, and pictures of the tubes were captured at 0, 15, 30, 60, 120, 180 and 300 min. After 300 min, the tubes were centrifuged at 20,000×g for 10 min to isolate any precipitate from the supernatant. No precipitate formed in the control sample.
Three samples were treated differently for three assays: (1) for sample 1, the precipitate was dissolved in 100 μL of DMF for absorption screening; (2) for sample 2, the precipitate was suspended in 100 μL of H2O for microscopic imaging; and (3) for sample 3, the precipitate was suspended in 1000 μL of H2O for dynamic light scattering (DLS) assay. The supernatant of sample 1 was freeze-dried under high vacuum and afterwards dissolved in 100 μL of DMF for absorption screening. The absorption spectra of the precipitates and supernatants were employed for quantitation of indigo and coumarin. […]

[2] = tested on: β-glucosidase from almonds; test: Indigogenic reaction with β-glucosidase from almonds; conditions: indoxyl 1 mM, enzyme 1 unit/mL, 0.01M acetate buffer pH 5, 5% DMF, 37° C., 16-19 h; ϵ = 1.27 × 10^4 M^−1 cm^−1 measured for 4
tritosomes = test: Indigoid dye formation with tritosomes; conditions: result in words
Protocol: The results from the glucosidase survey prompted several further experiments. First, a parallel set of studies was carried out with inclusion of several oxidants commonly employed in histochemical studies, given that the indigoid dye forming process requires the presence of an oxidant. […] The activity of the β-glucosidase was affected only slightly in the presence of a non-ionic detergent. To verify that the results observed in Table 1 were reliable, a 5-mg scale reaction of 33 was carried out to isolate indigo 43, which was obtained in 66% yield (Scheme 7). The 66% isolated yield corresponded well with the enzymatic yield of […] (Table 1, entry 15).
General methods. β-Glucosidase from almonds (lyophilized powder, ≥2 units/mg solid) and peroxidase from horseradish were purchased from Sigma-Aldrich. β-Glucosidase from Agrobacterium sp. (recombinant, suspension in 3.2 M (NH4)2SO4) was purchased from Megazyme; the concentration in solution was determined by absorption spectroscopy with E^0.1%=2.20 cm^−1 at 280 nm.^37 Tritosomes were purchased from XenoTech. Rat liver homogenate was purchased from MP Biomedicals.

[3] = target: T2, β-glucosidase from Agrobacterium (Agrobacterium sp., UniProt P12614); test: Indigogenic reaction with β-glucosidase from Agrobacterium
T2 construct: purchased Megazyme
T2 sequence (P12614 1-459): T1 sequence (P12614 1-459)
Protocol: Next, the β-glucosidase from Agrobacterium sp. was investigated as the trigger enzyme for indigoid dye formation. […] The reaction was carried out using the enzyme (200 nM) and indoxyl-glucoside 33 (100 μM) in phosphate buffer (pH 4-9, containing 2% DMF) at 37° C. […] Note that with 200 nM enzyme and 100 μM substrate, complete reaction requires 500 turnovers of each enzyme.
Reactions with β-glucosidase from Agrobacterium. An indoxyl compound in DMF (2 μL, 5 mM) and β-glucosidase from Agrobacterium in 10 mM phosphate buffer [2 μL, 10 μM, pH 7.0, containing 50 mM NaCl and 0.6 M (NH4)2SO4] were mixed with 50 mM phosphate buffer (96 μL, pH 7.0). The reaction mixture was incubated at 37° C. for 2 h and then centrifuged for 3 min. Any precipitate was separated from the supernatant and dissolved in DMF (200 μL). The resulting solution was analyzed by absorption spectroscopy. The experiment was repeated three times.

[4] = target: T2, β-glucosidase from Agrobacterium; test: Enzyme-triggered oligomerization of bis(indoxyl-glucoside) 46
Protocol: Oligomerization of 46 was carried out by treatment with β-glucosidase from Agrobacterium (200 nM) in 10 mM phosphate buffer (pH 7) at 37° C. for 2-4 h (Scheme 9). Precipitation occurred during the reaction. After centrifugation, the precipitate was separated from the supernatant, washed with H2O, and dried to afford a blue solid.
The efficacy of the indigogenic oligomerization was examined under a variety of conditions. As shown in entries 1-4 in Table 2, the yield of indigoid dye in the supernatant versus precipitate reversed as the concentration of 46 was decreased from 300 to 10 μM, although the total yields were in the range 17-29%. While the reactions in entries 1-4 were carried out in phosphate buffer containing NaCl (0.05 M), those of entries 5 and 6 (with 300 and 50 μM of 46, respectively) were conducted in NaCl-free phosphate buffer. The use of NaCl-free phosphate buffer facilitated extraction of the indigoid dye in the supernatant for analysis.
The time course of the oligomerization was examined under the reaction conditions listed in entry 5 of Table 2, with 300 μM of 46. Noticeable changes include observation of blue clouding and color deepening at 20 min. Centrifugation enabled isolation of the precipitate. […] The absorption spectrum of the precipitate was examined in DMF/DMSO (9:1) and compared with that of the extracted supernatant (in DMF) and 43 (in DMF) (FIG. 10D). […] Size-exclusion chromatography (SEC) [DMF/DMSO (9:1) as eluent] was applied to the precipitate and to the supernatant extract prepared from 300 μM of 46 (FIG. 10E). The first peak appeared at 18-20 min, and then the second peak at 38.5 min. The ratio of peak areas in the supernatant extract was 11:89, whereas that in the precipitate was 93:7. On the basis of a calibration curve prepared with poly(2-vinylpyridine) standards, the molecular size for the first and second peaks was expected to be >265 and <1 kDa, respectively. The large molecular size indicated for the first peak likely implies aggregation or assembly of the oligomers. The chromatograms for the samples prepared with 50 μM of 46 gave similar results but with higher purity compared with those at higher concentration.

[5] = 100 nmol compound V added, absorption spectroscopy and MCA
[6] = absorption spectroscopy and MCA

Compound: 2,4-Bis[1-(3-(β-D-glucopyranosyloxy)-4,6-dibromo-1H-indol-5-yl)-1,4,7,10-tetraoxadec-10-yl]-6-[14-(3-(2-(1-azido-3,6,9,12,15-pentaoxoheptadecylamino)-4-[12-((4-methyl-2H-chromen-2-one-7-yl)amino)ethylamino]-1,3,5-triazin-6-yloxy)propyl)-4-(3-sulfopropyl)piperazin-1-yl]-1,3,5-triazine [Compound V]
- Indigoid dye in the precipitate [1, 5]: 2.8 nmol
- Indigoid dye in the supernatant [1, 5]: 0.3 nmol
- Yield of indigoid dye (total) ([1]; 50 μM compound V, 200 nM β-glucosidase, 37° C., 5 h, MCA): 3.1%
- Coumarin in the precipitate [1, 6]: 51.6 nmol
- Coumarin in the supernatant [1, 6]: 11.1 nmol
- Size of aggregates (optical microscopy) ([1]; precipitate after 300 min suspended in H2O): ~1 μm
- Total quantity of indigoid dye ([1]; precipitate plus supernatant): 3.1 nmol
- Total amount of coumarin calculated by MCA ([1]; precipitate plus supernatant, 100 nmol compound V added): 62.7 nmol

Compound: 5-[(Benzylcarbamoyl)oxy)]-1H-indole-3-yl β-D-glucopyranoside [Compound 16]
- Yield (%) β-glucosidase from almonds [2]: 24%
- Indigoid dye formation with tritosomes (tritosomes): low yield

Compound: 5-{[(1R,8S,9s)-Bicyclo[6.1.0]non-4-yn-9-yl]methoxy}-4,6-dibromo-1H-indole-3-yl β-D-glucopyranoside [Compound 30]
- Yield (%) β-glucosidase from Agrobacterium ([3]; as E4 but ϵ = 2.6 × 10^4 M^−1 cm^−1 measured for 43): 10% and 10 ± 0.4%
- Yield (%) β-glucosidase from Agrobacterium ([3]; indoxyl 100 μM, enzyme 200 nM, 0.05M phosphate buffer pH 7.0, 2% DMF, 37° C., 2 h, n=3, ϵ = 1.27 × 10^4 M^−1 cm^−1): 21 ± 1%

Compound: COc1nc(Oc2ccc3[nH]cc(O[C@@H]4O[C@H](CO)[C@@H](O)[C@H](O)[C@H]4O)c3c2)nc(N2CCOCC2)n1 [Compound 19, 5-[(4-Methoxy-6-morpholino-1,3,5-triazin-2-yl)oxy]-1H-indole-3-yl β-D-glucopyranoside]
- Yield (%) β-glucosidase from almonds [2]: <1%
- Indigoid dye formation with tritosomes (tritosomes): low yield

Compound: O=S(=O)([O-])CCC[N+]1(CCCO)CCN(c2nc(OCCOCCOCCOc3c(Br)cc4[nH]cc(O[C@@H]5O[C@H](CO)[C@@H](O)[C@H](O)[C@H]5O)c4c3Br)nc(OCCOCCOCCOc3c(Br)cc4[nH]cc(O[C@@H]5O[C@H](CO)[C@@H](O)[C@H](O)[C@H]5O)c4c3Br)n2)CC1 [Compound 46]
- Total yield of indigoid dye (supernatant plus precipitate) ([4]; entries 1-4 of Table 2, [46] 300 to 10 μM): 17-29%
- Yield of indigoid dye (%) supernatant ([4]; entry 1: [46] 300 μM, 2 h, phosphate buffer containing NaCl (0.05M), ε = 2.6 × 10^4): 6%
- Yield of precipitate based on the monomer formula weight ([4]; larger scale (7.87 mg), conditions of entry 5 in Table 2): 49%
- Particle size of the precipitate (DLS, number mean) ([4]; precipitate suspended in H2O, 300 μM of 46, entry 5 conditions): ~680 nm
